Data published in PubChem BioAssay (NCI).
Several values for one entry are separate records, joined by “and”; a condition that tells them apart may be missing. Equal entries are not always repeated.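 Exposure lasted 48 hours, with cells grown in 96-well plates and compounds tested at five concentrations. GI50 is the concentration that inhibits growth by half. TGI: concentration producing complete growth inhibition.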

Experiments:
Assay in all cases: NCI anticancer screen, dose series, 48 h
SF-268 CNS = test system: SF-268 CNS
SK-OV-3 ovarian = test system: SK-OV-3 ovarian
SW-620 colon = test system: SW-620 colon
HL-60(TB) leukemia = test system: HL-60(TB) leukemia
K-562 leukemia = test system: K-562 leukemia
NCI-H23 lung = test system: NCI-H23 lung
TK-10 renal = test system: TK-10 renal
SF-295 CNS = test system: SF-295 CNS
SN12C renal = test system: SN12C renal
OVCAR-3 ovarian = test system: OVCAR-3 ovarian

| SMILES | GI50 (SF-268 CNS) | TGI (SF-268 CNS) | GI50 (SK-OV-3 ovarian) | TGI (SK-OV-3 ovarian) | GI50 (SW-620 colon) | TGI (SW-620 colon) | GI50 (HL-60(TB) leukemia) | TGI (HL-60(TB) leukemia) | GI50 (K-562 leukemia) | TGI (K-562 leukemia) | GI50 (NCI-H23 lung) | TGI (NCI-H23 lung) | GI50 (TK-10 renal) | TGI (TK-10 renal) | GI50 (SF-295 CNS) | GI50 (SN12C renal) | TGI (SN12C renal) | GI50 (OVCAR-3 ovarian) | TGI (OVCAR-3 ovarian) | TGI (SF-295 CNS) |
| --- | --- | --- | --- | --- | --- | --- | --- | --- | --- | --- | --- | --- | --- | --- | --- | --- | --- | --- | --- | --- |
| CC(C)n1c(/C=C/[C@@H](O)C[C@@H](O)CC(=O)O)c(-c2ccc(F)cc2)c2ccccc21 | 0.666 µM and 0.818 µM | > 100 µM | 19.8 µM and > 51.3 µM | > 100 µM | 3.76 µM and 5.15 µM | > 100 µM | 14.5 µM and 10.9 µM | 55.2 µM and > 100 µM | 5.94 µM and 6.56 µM | > 100 µM | 3.29 µM and 3.86 µM | > 100 µM | 33.7 µM and 7.85 µM | > 100 µM | 0.361 µM and 0.429 µM | 0.7 µM and 0.598 µM | > 100 µM | 12.2 µM and 15 µM | 46.7 µM and > 100 µM | – |
| CC1(C)C(=O)C(O)=CC2C1=CCC1C2(C)C(=O)CC2(C)C(C(C)(O)C(=O)CC(O)C(C)(C)O)C(O)CC12C (stereo not drawn) | – | 9.76 µM | – | 28.9 µM | – | > 50.7 µM | – | 11.6 µM | – | > 80.2 µM | – | 67.1 µM | – | 5.94 µM | – | – | > 90.4 µM | – | 10.2 µM | 13.1 µM |
| Clc1ccc(COC(Cn2ccnc2)c2ccc(Cl)cc2Cl)cc1 (stereo not drawn) | 3.42 µM | 18.3 µM and 36.1 µM and 36.7 µM | 4.24 µM | 14.8 µM and 26.8 µM and 35.2 µM | 2.96 µM | 13.3 µM and 27.4 µM and 29.2 µM | 2.42 µM | 5.2 µM and 22.7 µM and 16.6 µM | 2.8 µM | 10.2 µM and 23.9 µM and 21.1 µM | 2.08 µM | 10.2 µM and 28.7 µM and 29.7 µM | 2.68 µM | 7.15 µM and 29 µM and 23.9 µM | 1.9 µM | 2.5 µM | 12.7 µM and 25.3 µM | 2.5 µM | 6.49 µM and 23.2 µM and 25.1 µM | 8.99 µM and 24 µM and 23.6 µM |
| CON(C)C(=O)C(C)NC(=O)OCc1ccccc1 (stereo not drawn) | – | > 100 µM | – | > 100 µM | – | > 100 µM | – | > 100 µM | – | > 100 µM | – | > 100 µM | – | > 100 µM | – | – | > 100 µM | – | > 100 µM | > 100 µM |
| CCc1ccccc1NC(=O)C(=O)C(C(=O)c1ccc(OC)cc1)c1ccc(OC)cc1 (stereo not drawn) | – | > 100 µM | – | > 100 µM | – | > 100 µM | – | > 100 µM | – | > 100 µM | – | > 100 µM | – | > 100 µM | – | – | > 100 µM | – | > 100 µM | > 100 µM |
| CSc1ccc(/C=C2\CNC/C(=C\c3ccc(SC)cc3)C2=O)cc1 | 44 µg/mL | > 141 µM and 150 µg/mL | 77.8 µg/mL | > 170 µM and 148 µg/mL | 150 µg/mL | > 371 µM and 150 µg/mL | 15.2 µg/mL | 362 µM and 99.8 µg/mL | 150 µg/mL | > 371 µM and 150 µg/mL | 21.2 µg/mL | > 130 µM and 83.6 µg/mL | – | > 165 µM | 9.25 µg/mL | 150 µg/mL | > 371 µM and 150 µg/mL | 47.4 µg/mL | > 136 µM and 150 µg/mL | > 150 µM and 33.5 µg/mL |
| O=C(Nc1ccc(OC(F)(F)F)cc1)c1sccc1NCc1ccnc2ccccc12 | 5.26 µM | > 100 µM | 2.42 µM | > 100 µM | 5.03 µM | > 100 µM | 1.78 µM | 19.3 µM | 1.61 µM | > 100 µM | 2.18 µM | 19.6 µM | 4.87 µM | 98.6 µM | 2.63 µM | 2.97 µM | > 100 µM | 4.89 µM | > 100 µM | > 45.7 µM |
| CCOC(=O)c1c(NC(=O)c2ccc(C(C)C)cc2)sc2c(CN(C)C)c(O)ccc12 | 1.98 µM | 4.06 µM | 3 µM | 9.22 µM | 1.7 µM | 3.41 µM | 1.77 µM | 4.2 µM | 0.535 µM | 3.28 µM | 3.22 µM | 13.3 µM | 3 µM | 9.39 µM | 1.86 µM | 4.53 µM | 17.9 µM | 3.52 µM | 11.9 µM | 3.45 µM |
| Cc1c(C)c2cc3c(=O)ccoc3c(C)c2oc1=O | – | > 100 µM | – | > 100 µM | – | > 100 µM | – | > 100 µM | – | > 100 µM | – | > 100 µM | – | > 100 µM | – | – | > 100 µM | – | > 100 µM | > 100 µM |
| Fc1cccc(COc2ccc(Nc3ncnc4sc(-c5ccco5)cc34)cc2Cl)c1 | > 25 µM | > 25 µM | > 25 µM | > 25 µM | > 25 µM | > 25 µM | > 25 µM | > 25 µM | > 25 µM | > 25 µM | > 25 µM | > 25 µM | > 25 µM | > 25 µM | > 25 µM | > 25 µM | > 25 µM | > 25 µM | > 25 µM | > 25 µM |
| O=C1[C@@H](c2ccc(Cl)cc2)[C@H]2CC=C[C@H]2N1O | – | > 100 µM | – | > 100 µM | – | > 100 µM | – | > 100 µM | – | > 100 µM | – | > 100 µM | – | > 100 µM | – | – | > 100 µM | – | > 100 µM | > 100 µM |
| CC1(C)O[C@H]2OC3CCC(=O)CC3(O)[C@H]2O1 (stereo partly drawn) | – | > 100 µM | – | > 100 µM | – | > 100 µM | – | > 100 µM | – | > 100 µM | – | > 100 µM | – | > 100 µM | – | – | > 100 µM | – | > 100 µM | > 100 µM |
| Nc1nc2c(ncn2Cc2ccccc2CCO)c(=O)[nH]1 | – | > 100 µM | – | > 100 µM | – | > 100 µM | – | > 100 µM | – | > 100 µM | – | > 100 µM | – | > 100 µM | – | – | > 100 µM | – | > 100 µM | > 100 µM |
| Cc1cc(C)c2c(c1)CN1CN2Cc2cc(C)cc(C)c21 | – | > 100 µM | – | 86.5 µM | – | > 100 µM | – | 48.8 µM | – | > 100 µM | – | 55.4 µM | – | 37.7 µM | – | – | 32.6 µM | – | 28.3 µM | 37.4 µM |
| CC(C)(C)OC(=O)NCC(C#N)CNC(=O)OC(C)(C)C | – | > 100 µM | – | > 100 µM | – | > 100 µM | – | > 100 µM | – | > 100 µM | – | > 100 µM | – | > 100 µM | – | – | > 100 µM | – | > 100 µM | > 100 µM |
| Nc1cc2c3c(cccc3c1)NC2=O | – | > 100 µM | – | > 100 µM | – | > 100 µM | – | > 100 µM | – | > 100 µM | – | > 100 µM | – | > 100 µM | – | – | > 100 µM | – | > 100 µM | > 100 µM |
